Patent US20100158850A1, “DENDRIMER BASED MODULAR PLATFORMS” (The Regents of the University of Michigan, priority 2008, published 2010)
Each block holds one molecule with its values, some of them ahead of it.

Key:
[1] = biological target: T1, folic acid receptor (Homo sapiens, UniProt P15328); assay: Blocking of folate receptors: uptake of targeted platform 15 in KB cells with 20-fold excess blocking agent; format: cell-based; conditions: for Blocking of uptake of targeted platform 15 (FIG. 5d, 5e): 20 fold excess of blocking agent (for 13 with respect to folic acid content)
T1 construct: performed using FA-receptor-expressing KB cells (ATCC #CCL-17); host or cells: KB cells
Experimental: (§1) The uptake of the synthesized conjugates was performed using FA-receptor-expressing KB cells (ATCC #CCL-17) as previously described (see, e.g., Thomas et al, J. Med. Chem., 48, 3729-3735, 2005; herein incorporated by reference in its entirety). Cells were maintained in FA-free Roswell Park Memorial Institute-1640 (RPMI 1640) medium supplemented with 10% Fetal Bovine serum (FBS), […] L-glutamine, 100 U/ml penicillin and 100 μg/ml streptomycin in 5% CO2 at 37° C. Cells were planted into 24 wells plate at density 250,000 per well and allowed to reach ˜90% confluent on the day of the experiment. They were rinsed and incubated in serum free medium with conjugates for 1 hour at 37° C. in 5% CO2. In some wells, a 20-fold excess of free folic acid or the folic acid conjugated dendrimer was added 30 minutes prior to the addition of the dendrimer platform for the blocking of folate receptors.
(§2) The cellular fluorescence was quantified on a Beckman-Coulter EPICS-XL MCL flow cytometer, and the data were analyzed using Expo32 software (Beckman-Coulter, Miami, Fla.). Cells were trypsinized, rinsed and suspended in PBS containing 0.1% bovine serum albumin (PBSB). The viable cells were gated, and the mean FL1-fluorescence of 10,000 cells was quantified. Error bars are calculated using the half-peak coefficient of variation (HPCV) (see, e.g., Marie, D.; et al., Biol. Cell 1993, 78, 41-51; herein incorporated by reference in its entirety).
The final set of controls investigated active blocking of the folic acid receptor by either free folic acid (FIGS. 5d and 5f-green) or a folic acid-dendrimer conjugate without a fluorescent dye (13) (FIGS. 5e and 5f-orange) to prevent the specific up-take of the folic acid targeted dendrimer systema A 20 fold excess of blocking agent was employed relative to the targeted platform. For the blocking experiment using the single dendrimer-folic acid conjugate (13), molar equivalence was based on the folic acid content of the sample rather than the dendrimer content. Both blocking agents were evaluated at 30 nM, 100 nM, 300 nM, and 1000 nM. […] While the dendrimer-folic acid conjugate is not as effective at blocking as the free folic acid, approximately 75% blocking is achieved.

[2] = system: FA-receptor-expressing KB cells; assay: Cellular uptake of dendrimer conjugates in KB cells measured by flow cytometry; format: cell-based, human
Experimental: as §1, §2
Cellular uptake of the folic acid targeted dendrimer system (15) at four different concentrations (30 nM, 100 nM, 300 nM, and 1000 nM of 15) was measured in KB cells that express a high cellular membrane concentration of folic acid receptor (FAR). Fluorescence uptake was quantified by Flow Cytometry.
A series of control experiments were performed in order to ensure that uptake of the folic acid targeted dendrimer system (15) was occurring via receptor-mediated endocytosis and not non-specific membrane interactions. […] The second control sample contained a non-conjugated (un-clicked) mixture of the two dendrimers functionalized with either FITC or folic acid (13 and 14). Uptake of this mixture was quantified at 30 nM, 100 nM, and 300 nM (FIGS. 5c and 5f-teal). […] This control eliminates the possibility that the dendrimer modules could form a non-covalently linked complex that would be internalized. A third control sample (18) was composed of an un-targeted dendrimer module (17) coupled to the FITC conjugated imaging module (14). The un-targeted dual module platform (18) was assembled under the same conditions used to form the folic acid targeted platform (15). […] This un-targeted dendrimer platform control matches the molecular weight and size of the folic acid targeted dendrimer system (15).

T1 sequence (P15328 25-234): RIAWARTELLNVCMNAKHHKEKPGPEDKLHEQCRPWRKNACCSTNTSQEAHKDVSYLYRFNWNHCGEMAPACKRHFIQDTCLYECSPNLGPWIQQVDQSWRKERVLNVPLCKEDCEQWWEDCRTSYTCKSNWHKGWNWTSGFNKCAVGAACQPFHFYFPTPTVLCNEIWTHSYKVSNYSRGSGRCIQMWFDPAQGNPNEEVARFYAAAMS

Blocking of uptake of targeted platform 15 (FIG. 5d, 5e) [1]: successfully blocked
Blocking of uptake of targeted platform 15 ([1]; 20 fold excess, added 30 minutes before, concentrations up to 100 nM): Complete blocking
Molecule: Nc1nc2ncc(CNc3ccc(C(=O)N[C@@H](CCC(=O)O)C(=O)O)cc3)nc2c(=O)[nH]1 [free folic acid, folic acid, reference compound]

Molecule: FA3.5-G5-Ac107-L-G5-Ac106-FITC3.2 [Compound 15]
Cellular uptake (fluorescence, flow cytometry) ([2]; KB cells, 1 hour at 37° C., 30 nM, 100 nM, 300 nM and 1000 nM): dose dependent uptake
Concentration at which uptake saturates ([2]; KB cells, 1 hour at 37° C., tested at 30-1000 nM): 100 nM
Specific targeting of folic acid receptor in vitro ([2]; human epithelial cancer cell line (KB)): found to specifically target the over-expressed folic acid receptor

Molecule: G5-Ac106-Azide2.5-FITC3.2 [Compound 14]
Cellular uptake (FIG. 5b) ([2]; KB cells, 30 nM, 100 nM and 300 nM): not observed
Cellular uptake above the background level ([2]; KB cells, 30 nM, 100 nM, 300 nM and 1000 nM): No uptake was observed
Cellular uptake (FIG. 5b) ([2]; KB cells, 1000 nM): Very minimal uptake

Blocking of uptake of targeted platform 15 ([1]; 20 fold excess based on folic acid content, evaluated at 30-1000 nM): approximately 75%
Blocking of uptake of targeted platform 15 (FIG. 5d, 5e) [1]: successfully blocked
Molecule: G5-Ac107-Alkyne1.6-FA3.5 [Compound 13]

Molecule: G5-Ac110.7-L-G5-Ac106-FITC3.2 [Compound 18]
Mean fluorescence uptake beyond the background level ([2]; KB cells, concentrations up to 300 nM): no uptake was observed beyond the background level
